Test results taken from publication PMC10610885, “Discovery of an Insect Neuroactive Helix Ring Peptide from Ant Venom” (Toxins, 2023).
Read-outs that look alike come from different tables or passages of the source.

Legend:
blowfly Lucilia caesar [1] = conditions: L. caesar, 1 h post injection; cited from earlier work
Description: Table 2 Neuroactivity of ant venom peptides on blowfly species (Lucilia spp.) ranked by PD50 values 1 h post injection. | column: PD50 [1 h] *

[2] = cited from earlier work
Description: Table 2 Neuroactivity of ant venom peptides on blowfly species (Lucilia spp.) ranked by PD50 values 1 h post injection. | column: Cytotoxicity

D. melanogaster = assay: Ingestion assay on Drosophila; format: in vivo; conditions: fed at high doses in 50% sucrose (Figure S2)
Description: (§1) We used the same protocol used in Guo et al. for the ingestion assays with flies (L. caesar and D. melanogaster). Briefly, flies were placed in 2 mL microcentrifuge tubes right after hatching and were individually fed with 3 µL of 50% w/v sucrose solution (negative control) or sucrose solution containing the toxin. They were then kept at 25 °C. Mortality was recorded at 1, 2, 4, 24, 48, and 72 h after exposure to the tested compound. The surviving flies received 3 µL of 50% w/v sucrose solution without peptide each day until the end of the experiment. For each test, ten flies were used per treatment and each of them was replicated three times.

A. mellifera = assay: Ingestion assay on honeybees; format: in vivo, Apis mellifera; conditions: force fed 5 µL sucrose solution with 8 mg/mL (110 nmol/g bee)
Description: The ingestion assays on honeybees were conducted by placing bees in 850 mL plastic storage boxes with 2 mL microcentrifuge tubes filled with 50% w/v sucrose solution and previously drilled for bee access. The boxes were kept at 25 °C in the dark and the bees were allowed to feed ad libitum on the sucrose solution. For each test, ten bees were used per treatment, and each of them was replicated three times. Lethality was recorded at 1, 2, 4, 24, and 48 h after exposure to U11 peptide.
For oral toxicity assays, insects were starved for 2 h prior testing. Bees were individually force fed with 5 µL of 50% w/v sucrose solution (negative control), or sucrose solution containing the toxin (8 mg/mL–110 nmol/g bee).

Sitophilus oryzae = assay: Weevil toxicity test by ingestion; format: in vivo; conditions: S. oryzae, 800 μg/g of feed, two weeks
Description: S. oryzae toxicity tests were performed with the WAA42 strain as described previously. Briefly, the insects used for the bioassays were adults 2 to 3 weeks of age collected in one week experimental cohorts and placed in batches of 30 individuals on feed pellets containing the synthetic U11 tested in a whole grain-based diet. The tested concentration of the U11 was 800 μg/g of the feed. Bioactivity was assessed by daily insect survival during the first two weeks of contact with the test diet (27.5 °C, 70% room humidity) and by standard survival analysis.

A. pisum = assay: Feeding experiment on aphids; format: in vivo, Acyrthosiphon pisum; conditions: artificial diet with 500 μg/mL and 1 mg/mL, seven days
Description: For the feeding experiments on aphids, one-day-old aphids (corresponding to the first-instar nymphs N1) were placed for seven days in feeding chambers on 48 μL of a nutritive artificial diet specifically developed for A. pisum feeding, and development was completed with or without the peptide U11. The diets were changed after three days to avoid contamination. Ten N1 were deposited in the feeding chamber and three replicates were performed for each bioassay. Aphids’ mortality was assessed every day and compared between the different diets using a GLM linear regression model after observation of the residuals with a significance level of 5% on the R Studio software. Survival of aphids on two diets, completed, respectively, with U11 at 500 μg/mL and 1 mg/mL, was followed during seven days.

S2 cells [3] = assay: Membrane potential recorded by DiBAC4(3); format: cell-based, Drosophila; conditions: 10 µM, KCl 50 mM
Description: (§2) The embryonic S2 Drosophila cell line (Thermofisher, Waltham, MA, USA) was maintained in Schneider’s insect medium (Sigma-Aldrich, Saint Louis, MO, USA) complemented with 10% heat-inactivated fetal bovine serum (FBS) (Sigma-Aldrich) and 1% Penicillin/Streptomycin (Sigma-Aldrich) at 25 °C without CO2 on TC-treated support (Corning®, Glendale, AZ, USA). The FBS was heat inactivated at 60 °C for 45 min. The cells were passaged every two days at about 90% confluence.
Variations of membrane potential were assessed using the fluorescent dye bis-(1,3-dibutybarbituric acid) (DiBAC4(3)) (Thermofisher) using a IX73 fluorescence microscope (Olympus, Japan). Then, 6 × 10^5 S2 cells were plated on 0.01% Poly-L-Lysine (Sigma-Aldrich) coated glass-bottom Petri dishes and allowed to adhere for 24 h before experiments. […] Baseline was recorded for 1 min before addition of KCl (50 Mm final) to achieve membrane depolarization. The results are presented as transformed data to obtain the relative fluorescence to the time of addition of the stimulus, according to the equation: Fx = Ft/F0, where Ft represents the fluorescent value at a specific time point and F0 represents the mean basal fluorescent value. To compare the different conditions, areas under the curve (AUC) after KCl addition were calculated (between 60 and 300 s).

L. caesar = assay: Ingestion assay on blowflies; format: in vivo, Lucilia caesar
Description: as §1

blowfly Lucilia caesar [4] = assay: Blowfly paralytic assay, intrathoracic injection; format: in vivo; conditions: L. caesar; for PD50 [1 h]: 1 h post injection, mean ± SEM, n = 3, ten flies per dose
Description: (§3) In this study, we screened the neurotoxic activity of U11 when injected into a panel of beneficial and pest insects such as honeybees, blowflies, and aphids. Blowfly is a dipteran model commonly used to evaluate the insecticidal potency of venom peptides. Blowfly maggots (Lucilia caesar) were bought from a fisheries shop (Euroloisir81, Lescure-d’Albigeois, France) and were kept at 25 °C until hatching. Flies 1–4 days post hatching were used for the injection assays. Honeybee (Apis mellifera) is a model of choice to assess the impact of a toxin against beneficial insects such as pollinators. The honeybee colonies used in this study belong to the Buckfast breed and were maintained at the University Champollion campus in Albi. Adult foraging honeybees were individually isolated in plastic vials and immediately injected. Assays on blowflies and honeybees were conducted by lateral intrathoracic injection of peptides dissolved in ultra-pure water at several concentrations (from 0.005 to 0.52 mM for L. caesar and from 0.002 to 1 mM for A. mellifera) by using a 1.0 mL Hamilton Syringe (1000 Series Gastight, Hamilton Company, Reno, NV, USA) with a fixed 25 gauge needle attached to an Arnold hand microapplicator (Burkard Manufacturing Co., Ltd., Rickmansworth, UK). Each fly/bee received 1 µL of peptide solution and was individually housed in a 2 mL tube with 3 µL of 5% glucose solution. Paralytic activity was monitored at 1 h and 24 h after injection while lethality was monitored only at 24 h. […] Ten flies/honeybees were used for each toxicity experiment and for the appropriate control (ultrapure water solution), and the experiment was repeated three times for each dose. Dose–response data were analyzed as detailed by Touchard et al.. The pea aphids A. pisum used in this study were obtained from a long-established parthenogenetic clone (LL01). Aphids were kept on young broad bean plants (Vicia faba, L. cv. Aquadulce) at 21 °C with a photoperiod of 16 h light 8 h dark, allowing us to maintain them as strictly parthenogenetic matrilines. To produce synchronized apterous nymphs, winged adults were allowed to reproduce on seedlings for 24 h. The resulting synchronized nymphs were reared for 9 days on plants before the beginning of the experiments (peptide injection or feeding). For the injection experiment, we used four groups of synchronized A9 aphids (30 per group): (i) non-injected aphids, (ii) aphids injected with sterilized ultra-pure water (injection control), (iii) aphids injected with PA1b inactivated peptide (non-toxic peptide injection control), and (iv) aphids injected with the U11 peptide. […] Aphids were monitored daily for 7 days after injection and their survival and behavior regularly checked, following the protocol developed by Ribeiro Lopes et al.. […]

[5] = system: S2 Drosophila embryonic cell line; assay: LDH cytotoxicity assay; format: cell-based; conditions: S2 cells, 5 and 50 µM, 1 h and 24 h of incubation
Description: as §2
(§4) The CCK-8 (BosterBio, Pleasanton, CA, USA) and LDH (Dojindo, Rockville, MD, USA) assay kits were used to assess the cellular viability and mortality, with densities of 2 × 10^5 cells/mL and 6 × 10^5 cells/mL, respectively. Briefly, 100 µL of S2 cells at the appropriate densities were seeded in 96-well TC-treated plates and incubated for 24 h at 25 °C. […] Lysis Buffer, Triton 0.1%, and culture medium were used for controls. Viability and mortality cell assays were realized separately and in triplicates according to manufacturer’s instructions. The absorbances were measured using a BioTek Cytation 1 microplate reader (Agilent, Santa Clara, CA, USA) (i.e., 450 nm and 490 nm for CCK-8 and LDH assays, respectively). The percentages of living or dead cells were then calculated according to manufacturer’s recommendations.

S2 cells [6] = assay: Intracellular Ca2+ mobilization, Fluo-4/AM probe; format: cell-based, Drosophila; conditions: 10 µM, 1 h preincubation, thapsigargin 2 µM then CaCl2 1.8 mM
Description: as §2
The [Ca^2+]i mobilization was measured with the Fluo-4/AM probe using the imaging reader Cytation 1 (BioTek, Agilent). Then, 6 × 10^5 S2 cells/mL were plated on glass-bottom Petri dishes and allowed to adhere for 24 h before experiments. Cells are incubated with 2 µM of Fluo-4/AM in cell culture medium with 2.5 mM probenecid for 1 h at 25 °C with 10 µM of U11 peptide. Then, cells were rinsed twice in Ca^2+-free buffer containing (in mM) 120 NaCl, 5 KCl, 4 MgCl2, 32.2 Sucrose, 10 HEPES, 0.1 EGTA, 2.5 probenecide (pH 7.2), incubated in Ca^2+-free buffer, and processed for measurement of cytoplasmic Ca^2+ concentration. […] Cell fluorescence was analyzed with CALIMA [59] […] Changes in the Ca^2+ cytosolic concentration were calculated from changes of fluorescence relative to time 0 (F = Ft/Ft0 (fluorescence at time = t/time = 0)).

[7] = system: aphids (Acyrthosiphon pisum); assay: Aphid intra-abdominal injection assay; format: in vivo; conditions: A. pisum
Description: as §3, with “(LL01).” for “(LL01). Aphids were kept on young broad bean plants (Vicia faba, L. cv. Aquadulce) at 21 °C with a photoperiod of 16 h light 8 h dark, allowing us to maintain them as strictly parthenogenetic matrilines. To produce synchronized apterous nymphs, winged adults were allowed to reproduce on seedlings for 24 h. The resulting synchronized nymphs were reared for 9 days on plants before the beginning of the experiments (peptide injection or feeding). For the injection experiment, we used four groups of synchronized A9 aphids (30 per group): (i) non-injected aphids, (ii) aphids injected with sterilized ultra-pure water (injection control), (iii) aphids injected with PA1b inactivated peptide (non-toxic peptide injection control), and (iv) aphids injected with the U11 peptide.”

[8] = system: honeybees (Apis mellifera); assay: Honeybee paralytic assay, intrathoracic injection; format: in vivo; conditions: A. mellifera, n = 3
Description: In this study, we screened the neurotoxic activity of U11 when injected into a panel of beneficial and pest insects such as honeybees, blowflies, and aphids. Blowfly is a dipteran model commonly used to evaluate the insecticidal potency of venom peptides. Blowfly maggots (Lucilia caesar) were bought from a fisheries shop (Euroloisir81, Lescure-d’Albigeois, France) and were kept at 25 °C until hatching. Flies 1–4 days post hatching were used for the injection assays. Honeybee (Apis mellifera) is a model of choice to assess the impact of a toxin against beneficial insects such as pollinators. The honeybee colonies used in this study belong to the Buckfast breed and were maintained at the University Champollion campus in Albi. Adult foraging honeybees were individually isolated in plastic vials and immediately injected. […] Paralytic activity was monitored at 1 h and 24 h after injection while lethality was monitored only at 24 h. […] Dose–response data were analyzed as detailed by Touchard et al.. […] Aphids were monitored daily for 7 days after injection and their survival and behavior regularly checked, following the protocol developed by Ribeiro Lopes et al.. […]

[9] = system: S2 Drosophila embryonic cell line; assay: CCK-8 cytotoxicity assay; format: cell-based
Description: as §2, §4

Question: Which results are given for bicarinalin [M-Tb1a]?
Answer: PD50 [1 h] (blowfly Lucilia caesar [1]): 12.0 ± 1.0 nmol/g; Cytotoxicity [2]: Yes

Question: For U11-MYRTX-Tb1a, which toxicity by ingestion (D. melanogaster) is on record?
Answer: active by ingestion

Question: What about the toxicity by ingestion (A. mellifera) of the same substance?
Answer: unaffected

Question: And the toxicity by ingestion (Sitophilus oryzae)?
Answer: unaffected

Question: And the toxicity by ingestion (A. pisum)?
Answer: unaffected

Question: What about the “depolarization-induced increase in fluorescence intensity, less than in the control condition” value (S2 cells [3]; 30 min, DiBAC4(3), NMDG buffer) of the same substance?
Answer: 33%

Question: What about the “AUC of relative fluorescence after KCl application” value (S2 cells [3]; 60-300 s, mean ± SEM of n = 220 cells (n = 3), control 464 ± 35) of the same substance?
Answer: 312 ± 23

Question: What about the toxicity by ingestion (L. caesar; fed at high doses in 50% sucrose (Figure S2)) of the same substance?
Answer: active by ingestion

Question: And the “blowflies affected 24 h post ingestion” value (L. caesar; ingestion, 8 mg/mL (350 nmol. g^−1), 24 h)?
Answer: 60%

Question: What about the “paralysis of flies 1 h after injection (screen)” value (blowfly Lucilia caesar [4]; intrathoracic injection of one high dose per peptide (Table 1: U8 54, U10 28, U11 27, U13 45 nmol. g^−1), 1 h, ten flies per replicate, three replicates) of the same substance?
Answer: paralysis of all flies

Question: And the “PD50 [1 h]” value (blowfly Lucilia caesar [4]; intrathoracic injection)?
Answer: 1.78 ± 0.12 nmol/g

Question: And the “PD50 [1 h]” value (blowfly Lucilia caesar [4]; intrathoracic injection, listed as U11-Tb1a)?
Answer: 1.8 ± 0.1 nmol/g

Question: What about the “PD50 24 h post injection” value (blowfly Lucilia caesar [4]; intrathoracic injection, 24 h post injection, n = 3) of the same substance?
Answer: 2.67 ± 0.13 nmol/g

Question: And the “cytotoxicity, LDH assay” value [5]?
Answer: not cytotoxic

Question: What about the “calcium mobilization (Tg response and calcium influx)” value (S2 cells [6]) of the same substance?
Answer: No effect

Question: And the “effect on aphid fitness” value ([7]; injection 3.4 nmol. g^−1, monitored over 7 days (Figure S1))?
Answer: weak effect

Question: And the “aphids affected 24 h post injection” value ([7]; intra-abdominal injection, 3.4 nmol. g^−1 (46 nL of 0.25 mM), 24 h)?
Answer: 6.6%

Question: And the “paralytic effect on aphids by injection” value ([7]; intra-abdominal injection, 3.4 nmol. g^−1, 24 h)?
Answer: weak paralytic effect

Question: What about the “PD50 1 h post injection” value ([8]; 1 h post injection) of the same substance?
Answer: 1.36 ± 0.08 nmol/g

Question: What about the “PD50 24 h post injection” value ([8]; 24 h post injection) of the same substance?
Answer: 1.11 ± 0.09 nmol/g

Question: What about the “cytotoxicity, CCK-8 assay” value ([9]; S2 cells, 5 and 50 µM, 1 h and 24 h of incubation) of the same substance?
Answer: not cytotoxic

Question: What about the Cytotoxicity ([9]; Table 2, this study: CCK-8 and LDH assays on S2 cells) of the same substance?
Answer: No
